Measured values: US20030017565A1, “COMPOSITION AND METHOD FOR TREATING A POROUS ARTICLE AND USE THEREOF” (priority 1996, published 2003)

Columns and labels:
[1] = leaching of Japan cedar blocks after reduced pressure impregnation (Example 3); type: physicochemical; conditions: no LSA, enzyme not added, pH 4.1
Method: The pH was adjusted with sodium hydroxide or sulfuric acid. The reduced pressure impregnation operation was performed by a handy method, i.e., by applying a reduced pressure of 650 to 700 mmHg for 1 hour after dipping the Japan cedar blocks in the treatment liquid and then keeping the blocks at atmospheric pressure for 30 minutes as they were dipped in the treatment liquid. By measuring the weights of each block before and after the impregnation treatment, it was confirmed that as a result of the pressure reduction treatment operation, a sufficient amount of the treating liquid (10 to 14 g) was injected in the blocks. Further, the wood blocks after the impregnation treatment were placed in an incubator at 28° C., for 5 days to effect drying and macromolecularization reaction.

[2] = copper retention rate in Japan cedar sapwood after three leachings (Example 23); type: physicochemical; conditions: pH of treating liquid 4.6, three leachings of 8 hours
Method: Aqueous solutions having the compositions listed in table 15 below were prepared and adjusted to pH 8.5 with sodium hydroxide. Those compositions which contained no ethylenediamine (EDA) nor ethanolamine (MEA) were tested at pH 4.5 since copper is deposited as copper hydroxide in alkaline regions. […] The wood blocks were taken out of the solutions and air-dried at 28 ° C. for 72 hours and then dried in a forced air circulation drier at 60° C. for 48 hours. After the drying, the wood blocks were submerged in 10 fold volume of deionized water at 25° C. with stirring at 300 rpm for 8 hours for leaching. This operation was repeated three times. The rate of copper fixed to wood was calculated from the sum of the amounts of eluted copper ions by the three elution operations to the total amount of copper ions in the solution impregnated in the wood.

[3] = leaching of Japan cedar blocks treated with LSA and chemical agents (Example 4); type: physicochemical; conditions: 5% LSA; for Elution Rate (%) Chemical Agent: species measured as bracketed (Copper, Zinc, Nickel, Boron, H = hinokitiol), else the agent named
Method: For chemical agents having low solubilities, they were added to aqueous lignosulfonic acid solution after it was warmed to 60 to 90° C., and it was cooled at 25° C. after the chemical agents were suspended, dispersed, dissolved by Vortex-Mixer, […]
The amount of lignosulfonic acid which leached off was determined by measurement of the absorbance at 280 nm, and the amount of the chemical agent which leached off was determined by complex formation and spectrophotometry using PAN (1-(2-pyridylazo)-2-naphthol, Aldrich Chemical Company) or quinalizarin (Wako Pure Chemicals), separation, identification and determination, using HPLC or gas chromatography, or atomic absorption analysis were performed, followed by calculation of the amount of the chemical agents which was eluted. When the chemical agents had absorption at 280 nm, the concentration of lignosulfonic acid was calculated by measuring the absorbance at 280 nm of the chemical agents of which the concentration was measured by the above-described method and subtracting an influence by the chemical agent from the absorbance at 280 nm of the liquid which was eluted. The amounts of the chemical agents and lignosulfonic acid which were eluted were calculated and compared taking the amounts of them injected upon the impregnation treatment as 100%.

[4] = leaching of cypress blocks, Myrothecium roridum enzyme (Example 5); type: physicochemical; conditions: 40 ppm Example 2 enzyme, 5% LSA; for Elution Rate (%) LSA: pH 8.2-8.8; for Elution Rate (%) Chemical Agent: pH 8.2-8.8, species as bracketed (Copper, H = hinokitiol), else the agent named
Method: (§1) The amounts of the chemical agents and lignosulfonic acid which were eluted were calculated and compared taking the amounts of them injected upon the impregnation treatment as 100%.

[5] = leaching of cypress blocks, bilirubin oxidase (Example 6); type: physicochemical; conditions: for Elution Rate (%) LSA: pH 8.1-8.8; for Elution Rate (%) Chemical Agent: pH 8.1-8.8, species as bracketed (Copper, Zinc, Nickel, Boron, H = hinokitiol), else the agent named
Description: Taking the amounts of the lignosulfonic acid (LSA) and chemical agent as injected upon the impregnation treatment as 100%, respectively, the amounts of the substances which were eluted were compared.

[6] = leaching of cypress blocks, peroxidase + alcohol oxidase (Example 7); type: physicochemical; conditions: 5 U/ml peroxidase + 5 U/ml alcohol oxidase + 1% methanol; for Elution Rate (%) LSA: pH 8.1-8.8; for Elution Rate (%) Chemical Agent: pH 8.1-8.8, species as bracketed (Copper, Zinc, Boron, H = hinokitiol), else the agent named
Description: The peroxidase used was obtained from horse radish (Type II, Sigma) and the alcohol oxidase used was obtained from Candida boidini (Boehringer Mannheim Biochemica).

[7] = leaching of Japan cedar blocks after initial vacuum and pressure impregnation (Example 10); type: physicochemical; conditions: initial vacuum then 10 atm, enzyme added, 5% LSA; for Elution Rate (%) LSA: pH 8.1-8.8; for Elution Rate (%) Chemical Agent: pH 8.1-8.8, species as bracketed (Copper, Zinc, Nickel, H = hinokitiol), else the agent named
Method: A reaction mixture for treating wood containing 30 ppm of the freeze-dried product described in Example 1, 5% of commercially available lignosulfonic acid, and one or more various chemical agents was prepared, and Japan cedar wood blocks (3 cm×3 cm×2 cm, butt end: 3 cm×3 cm) were subjected to pressure reduction (initial vacuum) and impregnation treatment under pressure using the reaction mixture in the same manner as in Examples 3 and 4.
The pressure reduction and pressurization were performed by setting a vessel for impregnation operation as shown in FIG. 1 in a pressure reactor (5 liter in volume), conducting initial vacuum from 600 to 720 mmHg for 30 minutes using a vacuum pump, tilting the whole apparatus to allow the treatment liquid to flow toward the wood so that the wood blocks can be dipped in the treatment liquid, and then pressurized at 10 atm for 1 hour by flowing high pressure nitrogen gas in the reactor.
The wood blocks after the impregnation treatment were further subjected to drying/macromolecularization reaction and leaching treatment in the same manner as in Examples 3 and 4. The amounts of the chemical agents and lignosulfonic acid which were eluted were calculated and compared taking the amounts of them injected upon the impregnation treatment as 100%.

[8] = system: Coriolus versicolor FEPRI 1030; test: antifungal test on treated wood, weight loss; type: cell-based; conditions: leached wood blocks of Example 10, LSA added, enzyme added, pH of treating liquid 8.1-8.8, 26° C., 12 weeks
Method: (§2) After completion of the antifungal operation, the wood blocks were taken out of the incubator and hyphae on the surface thereof were removed sufficiently. After air dried for about 24 hours, the wood blocks were dried sufficiently using a drier and a desiccator in the same manner as described above and their weight was measured. Percent weight loss (%) was calculated by comparing the weight obtained with the weight before the antifungal operation.

[9] = system: Tyromyces palustris FEPRI 0507; test: antifungal test on treated wood, weight loss; type: cell-based; conditions: leached wood blocks of Example 10, LSA added, enzyme added, pH of treating liquid 8.1-8.8, 26° C., 12 weeks
Method: as §2

[10] = leaching of Japan cedar blocks, treating mixture with tung oil (Example 8); type: physicochemical; conditions: Example 1 enzyme, 5% LSA, 2,000 ppm tung oil
Method: as §1

house termite = test: termite preventing test on treated wood, weight reduction; type: in vivo; conditions: leached wood blocks of Example 10, LSA added, enzyme added, pH 8.1-8.5, about 40 cm from termite nest, 2 months
Description: The wood blocks were placed on the soil at a distance of about 40 cm around the nest of house termite. After they were left to stand for 2 months, termite preventive properties were observed. […] Then, the dry weight thus obtained was compared with the weight of the wood blocks before the placement on the soil, thus calculating a weight reduction rate.

[11] = in the absence of enzyme (comparison), pH 8.1-8.8
[12] = in the presence of enzyme, Japan cedar, pH of treating agent 8.1-8.8
[13] = in the presence of enzyme, pH 8.1-8.8

Molecule | Elution Rate (%) Copper [1] | Copper Retention Rate (%) ([2]; enzyme added (20 ppm)) | Copper Retention Rate (%) ([2]; enzyme not added) | Elution Rate (%) LSA [3, 11] | Elution Rate (%) Chemical Agent [3, 11] | Elution Rate (%) LSA [3, 12] | Elution Rate (%) Chemical Agent [3, 13] | Elution Rate (%) LSA [4] | Elution Rate (%) Chemical Agent [4] | Elution Rate (%) LSA [5] | Elution Rate (%) Chemical Agent [5] | Elution Rate (%) LSA [6] | Elution Rate (%) Chemical Agent [6] | Elution Rate (%) LSA [7] | Elution Rate (%) Chemical Agent [7] | Weight Loss (%) Coriolus versicolor [8] | Weight Loss (%) Tyromyces palustris [9] | Elution Rate (%) LSA ([10]; pH 8.1-8.5) | Elution Rate (%) Chemical Agent ([10]; pH 8.1-8.5, species as bracketed (Copper, Zinc, Nickel, H = hinokitiol), else the agent named) | Weight Reduction Rate (%) (house termite)
O=S(=O)([O-])[O-].[Cu+2] [0.04 M CuSO4, copper (II) sulfate] | 58.5% | 19.3% | 21.8% | – | – | – | – | – | – | – | – | – | – | – | – | – | – | – | – | –
O=C(OC[C@H]1O[C@@H](OC(=O)c2cc(O)c(O)c(OC(=O)c3cc(O)c(O)c(O)c3)c2)[C@H](OC(=O)c2cc(O)c(O)c(OC(=O)c3cc(O)c(O)c(O)c3)c2)[C@@H](OC(=O)c2cc(O)c(O)c(OC(=O)c3cc(O)c(O)c(O)c3)c2)[C@@H]1OC(=O)c1cc(O)c(O)c(OC(=O)c2cc(O)c(O)c(O)c2)c1)c1cc(O)c(O)c(OC(=O)c2cc(O)c(O)c(O)c2)c1 [500 ppm Tannic acid, Tannic acid] | – | – | – | 24.2% | 21.0% | 3.8% | 4.0% | 6.8% | 8.7% | 6.6% | 8.3% | 9.2% | 10.3% | 2.3% | 3.1% | 10.8% | 12.9% | – | – | –
CC(C)c1cccc(=O)c(O)c1 [1000 ppm Hinokitiol, Hinokitiol] | – | – | – | 24.2% | 14.4% | 0.6% | 3.1% | 2.2% | 7.2% | 1.7% | 5.4% | 4.5% | 6.2% | 0.4% | 2.3% | 1.5% | 2.2% | 1.1% | 0.5% | 2.2%
(+)-Catechin · H2O [1000 ppm (+)-Catechin · H2O] | – | – | – | 23.4% | 11.3% | 2.7% | 2.8% | 5.2% | 6.6% | 4.4% | 6.3% | 5.3% | 8.7% | 2.1% | 2.0% | 8.3% | 9.9% | – | – | –
